Measured values from ChEMBL document CHEMBL5370609, “Amidine-Based Cationic Conjugated Oligoelectrolytes with Antimicrobial Activity against Pseudomonas aeruginosa Biofilms” (J Med Chem, 2023).
Values after ≈ are worked out from the molar mass of the structure shown. Active and inactive are the calls of the source. The calls are words filed in the database; no cut-off is given here.

Tests used:
[1] = system: Klebsiella pneumoniae; experiment: Antibacterial activity against Klebsiella pneumoniae ATCC 700603 assessed as inhibition of bacterial growth incubated overnight by broth microdilution method; type: functional
[2] = system: Escherichia coli; experiment: Antibacterial activity against Escherichia coli ATCC 25922 assessed as inhibition of bacterial growth incubated for overnight by broth microdilution method; type: functional
[3] = system: Pseudomonas aeruginosa; experiment: Antibacterial activity against Pseudomonas aeruginosa ATCC 27853 assessed as inhibition of bacterial growth incubated overnight by broth microdilution method; type: functional
[4] = Selectivity index, IC50 for cytotoxicity against human HepG2 cells to MIC for antibacterial activity against Pseudomonas aeruginosa ATCC 27853 assessed as inhibition of bacterial growth; type: toxicity, cell-based; settings: read-out: Selectivity Index
[5] = system: Staphylococcus aureus; experiment: Antibacterial activity against Staphylococcus aureus ATCC 29213 assessed as inhibition of bacterial growth incubated overnight by broth microdilution method; type: functional
[6] = Cytotoxicity against human HepG2 cells assessed as reduction in cell viability incubated for 24 hrs by MTT assay; type: toxicity, cell-based
[7] = system: Pseudomonas aeruginosa; experiment: Inhibition of biofilm formation in Pseudomonas aeruginosa PAO1 at below MIC incubated for 24 hrs by crystal violet staining based analysis; type: functional, organism-based
[8] = system: Pseudomonas aeruginosa; experiment: Antibiofilm activity against preformed biofilm in Pseudomonas aeruginosa PAO1 assessed as reduction in biofilm viability upto 1024 ug/ml incubated for 24 hrs by BacTiter Glo reagent based luminescence analysis; type: functional, organism-based; settings: dose <= 1024.0 µg/ml
[9] = system: Pseudomonas aeruginosa; experiment: Inhibition of biofilm formation in Pseudomonas aeruginosa PAO1 incubated for 24 hrs by crystal violet staining based analysis; type: functional
[10] = system: Pseudomonas aeruginosa; experiment: Induction of spontaneous resistance development in Pseudomonas aeruginosa PAO1 assessed as frequency of resistance at 2 to 4 times of MIC incubated for 48 hrs by FoR assay; type: functional
[11] = system: Pseudomonas aeruginosa; experiment: Induction of resistance development in Pseudomonas aeruginosa PAO1 assessed as fold increase in MIC measured after consecutive passages for 21 days by serial passaging assay relative to day 1 MIC; type: functional; settings: time 21 day
[12] = system: Pseudomonas aeruginosa; experiment: Antibacterial activity against Pseudomonas aeruginosa PAO1 assessed as inhibition of bacterial growth incubated overnight by broth microdilution method; type: functional
[13] = system: Pseudomonas aeruginosa; experiment: Antibiofilm activity against preformed biofilm in Pseudomonas aeruginosa PAO1 assessed as bacteria killing at 1024 ug/ml incubated for 24 hrs by BacTiter Glo reagent based luminescence analysis; type: functional, organism-based; settings: dose 1024.0 µg/ml
[14] = system: Pseudomonas aeruginosa; experiment: Bactericidal activity against Pseudomonas aeruginosa PAO1 assessed as reduction in viable bacteria at 4 times of MIC measured after 4 to 8 hrs by time-kill kinetics assay; type: functional, organism-based; settings: time 4-8 hrs
[15] = system: Pseudomonas aeruginosa; experiment: Antibacterial activity against Pseudomonas aeruginosa PAO1 infected in C57BL/6 mouse wound model assessed as reduction in bacterial count on wound bed at 2 to 8 % w/v pre-infected with bacteria for 24 hrs followed by topical administration of compounds for 24 hrs; type: functional, organism-based; settings: dose 2-8 %
[16] = system: Pseudomonas aeruginosa; experiment: (§1) Antibacterial activity against Pseudomonas aeruginosa PAO1 infected in C57BL/6 mouse wound model assessed as log reduction in colony forming unit on wound bed at 2 % w/v pre-infected with bacteria for 4 hrs followed by topical administration of compounds for 20 hrs and measured 24 hrs post infection; type: functional
[17] = system: Pseudomonas aeruginosa; experiment: Bactericidal activity against Pseudomonas aeruginosa PAO1 assessed as reduction in bacterial growth at 8 times of MIC measured after 48 hrs by time-kill kinetics assay; type: functional, organism-based
[18] = system: Pseudomonas aeruginosa; experiment: Bactericidal activity against Pseudomonas aeruginosa PAO1 assessed as reduction in viable bacteria at 4 times of MIC measured at 8 to 48 hrs by time-kill kinetics assay; type: functional, organism-based; settings: time 8-48 hrs
[19] = system: NIH3T3; experiment: Cytotoxicity against mouse 3T3 cells assessed as reduction in cell viability incubated for 24 hrs by CellTiter-Glo reagent based luminescence assay; type: toxicity; settings: nih3t3, 24 h
[20] = system: Pseudomonas aeruginosa; experiment: as §1, with “at 0.5” for “at 2”; type: functional
[21] = system: Pseudomonas aeruginosa; experiment: Bactericidal activity against Pseudomonas aeruginosa PAO1 assessed as bacterial eradication at 8 times of MIC measured at 8 hrs by time-kill kinetics assay relative to control; type: functional
[22] = system: HEK293; experiment: Cytotoxicity against HEK293 cells assessed as reduction in cell viability incubated for 24 hrs by CellTiter-Glo reagent based luminescence assay; type: toxicity; settings: human, hek293, 24 h
[23] = Dissociation constant, pKa of compound at pH 7.4 by potentiometric titration method; type: physicochemical
[24] = system: Pseudomonas aeruginosa; experiment: Antibacterial activity against Pseudomonas aeruginosa PAO1 infected in C57BL/6 mouse wound model assessed as reduction in bacterial count on wound bed pre-infected with bacteria for 4 hrs followed by topical administration of compounds for 20 hrs and measured 24 hrs post infection; type: functional, organism-based; settings: dose 0.1-2 %
[25] = system: Pseudomonas aeruginosa; experiment: Inhibition of biofilm formation in Pseudomonas aeruginosa PAO1 at below MIC incubated for 24 hrs by crystal violet staining based analysis relative to control; type: functional
[26] = system: Pseudomonas aeruginosa; experiment: Antibiofilm activity in Pseudomonas aeruginosa PAO1 assessed as eradication of preformed biofilm at 256 ug/ml incubated for 24 hr by BacTiter Glo reagent based luminescence analysis; type: functional, organism-based; settings: dose 256.0 µg/ml
[27] = Hemolytic activity in human blood assessed as hemolysis at 492 ug/ml incubated for 45 mins by absorbance based plate reader analysis relative to control; type: toxicity, tissue-based; settings: at 492 µg/mL, read-out: Activity
[28] = system: Pseudomonas aeruginosa; experiment: Antibiofilm activity against preformed biofilm in Pseudomonas aeruginosa PAO1 assessed as biofilm killing at 128 ug/ml incubated for 24 hrs by BacTiter Glo reagent based luminescence analysis; type: functional, organism-based; settings: dose 128.0 µg/ml
[29] = system: Pseudomonas aeruginosa; experiment: Bactericidal activity against Pseudomonas aeruginosa PAO1 assessed as reduction in colony forming units at 4 times of MIC incubated for 1 hrs by time-kill kinetics assay relative to control; type: functional; design: scale not given: the % may be the effect or the level left
[30] = system: Pseudomonas aeruginosa; experiment: Bactericidal activity against Pseudomonas aeruginosa PAO1 assessed as log reduction in colony forming units at 4 times of MIC incubated for 1 hrs by time-kill kinetics assay; type: functional
[31] = system: Pseudomonas aeruginosa; experiment: Antibiofilm activity in Pseudomonas aeruginosa PAO1 assessed as eradication of preformed biofilm at 64 to 128 ug/ml incubated for 24 hr by BacTiter Glo reagent based luminescence analysis; type: functional, organism-based; settings: dose 64-128 µg/ml

Compound: CC(=O)O.CC(=O)O.CC(=O)O.CC(=O)O.N=C(CC1CC1)NCCCOc1cc(/C=C/c2ccc(/C=C/c3cc(OCCCNC(=N)CC4CC4)cc(OCCCNC(=N)CC4CC4)c3)cc2)cc(OCCCNC(=N)CC2CC2)c1
- MIC [1]: 4 µg/mL
- MIC [2]: 2 µg/mL
- MIC [3]: 8 µg/mL
- selectivity ratio [4]: 32
- MIC [5]: 1 µg/mL
- IC50 at 24 h [6]: 256 µg/mL

Compound: O=C(O)c1cn(C2CC2)c2cc(N3CCNCC3)c(F)cc2c1=O [CIPROFLOXACIN]
- inhibition [7]: inactive
- Activity [8]: inactive
- MBIC50 [9]: 2 µg/mL
- MBIC90 [9]: 2 µg/mL

Compound: C/N=C(/C)NCCCOc1cc(/C=C/c2ccc(/C=C/c3cc(OCCCN/C(C)=N\C)cc(OCCCN/C(C)=N/C)c3)cc2)cc(OCCCN/C(C)=N/C)c1.CC(=O)O.CC(=O)O.CC(=O)O.CC(=O)O
- MIC [1]: 16 µg/mL
- MIC [2]: 2 µg/mL
- MIC [3]: 32 µg/mL
- selectivity ratio [4]: > 32
- MIC [5]: 1 µg/mL
- IC50 at 24 h [6]: > 1020 µg/mL

Compound: NC[C@H]1O[C@H](O[C@H]2[C@H](O)[C@@H](O[C@H]3O[C@H](CO)[C@@H](O)[C@H](N)[C@H]3O)[C@H](N)C[C@@H]2N)[C@H](N)C[C@@H]1O [TOBRAMYCIN]
- inhibition [7]: inactive
- Activity [10]: Active
- fold change (FC) [11]: 64
- MIC [12]: 0.5 µg/mL (≈ 1.07 µM)
- Activity [13]: Active
- MBIC50 [9]: 0.5 µg/mL
- MBIC90 [9]: 0.5 µg/mL
- Activity [14]: inactive

Compound: CC(=O)O.CC(=O)O.CC(=O)O.CC(=O)O.CCC(=N)N(C)CCCOc1cc(/C=C/c2ccc(/C=C/c3cc(OCCCN(C)C(=N)CC)cc(OCCCN(C)C(=N)CC)c3)cc2)cc(OCCCN(C)C(=N)CC)c1
- MIC [1]: 16 µg/mL
- MIC [2]: 1 µg/mL
- MIC [3]: 8 µg/mL
- selectivity ratio [4]: > 128
- MIC [5]: 1 µg/mL
- IC50 at 24 h [6]: > 1020 µg/mL

Compound: CC(=O)O.CC(=O)O.CC(=O)O.CC(=O)O.CN(CCCOc1cc(/C=C/c2ccc(/C=C/c3cc(OCCCN(C)C(=N)C4CC4)cc(OCCCN(C)C(=N)C4CC4)c3)cc2)cc(OCCCN(C)C(=N)C2CC2)c1)C(=N)C1CC1
- MIC [1]: 8 µg/mL
- MIC [2]: 1 µg/mL
- MIC [3]: 8 µg/mL
- selectivity ratio [4]: 128
- MIC [5]: 1 µg/mL
- IC50 at 24 h [6]: 1020 µg/mL

Compound: CC(=O)O.CC(=O)O.CC(=O)O.CC(=O)O.N=C(NCCCOc1cc(/C=C/c2ccc(/C=C/c3cc(OCCCNC(=N)C4CC4)cc(OCCCNC(=N)C4CC4)c3)cc2)cc(OCCCNC(=N)C2CC2)c1)C1CC1
- Activity [15]: Active
- log(activity) [16]: 2.8
- Activity [10]: <1.3 10^-8No_unit
- Activity [17]: Active
- Activity [18]: inactive
- Activity [19]: Non-Toxic
- log(activity) [20]: 1.5
- Activity [21]: 100%
- Activity [22]: Non-Toxic
- fold change (FC) [11]: 4
- pKa [23]: 10
- MIC [12]: 8 µg/mL
- Activity [24]: Dose-Dependent Effect
- MBIC50 [9]: 1 µg/mL
- MBIC90 [9]: 4 µg/mL
- inhibition (INH) [25]: ~31%
- Activity [26]: Active
- hemolysis at 0.75 h, 492 ug/ml [27]: 0.2%
- selectivity ratio [4]: 512
- MIC [5]: 0.5 µg/mL
- Activity [28]: Active
- Activity [29]: 99.9%
- log(activity) [30]: 3
- IC50 at 24 h [6]: 1020 µg/mL

Compound: COLISTIN
- MIC [1]: 2 µg/mL
- MIC [2]: 2 µg/mL
- MIC [3]: 2 µg/mL

Compound: CC[C@H]1OC(=O)[C@H](C)[C@@H](O[C@H]2C[C@@](C)(OC)[C@@H](O)[C@H](C)O2)[C@H](C)[C@@H](O[C@@H]2O[C@H](C)C[C@H](N(C)C)[C@H]2O)[C@](C)(O)C[C@@H](C)C(=O)[C@H](C)[C@@H](O)[C@]1(C)O [ERYTHROMYCIN]
- MIC [5]: 0.25 µg/mL (≈ 0.341 µM)

Compound: CC(=O)O.CC(=O)O.CC(=O)O.CC(=O)O.CCC(=N)NCCCOc1cc(/C=C/c2ccc(/C=C/c3cc(OCCCNC(=N)CC)cc(OCCCNC(=N)CC)c3)cc2)cc(OCCCNC(=N)CC)c1
- MIC [1]: 8 µg/mL
- MIC [2]: 1 µg/mL
- MIC [3]: 8 µg/mL
- selectivity ratio [4]: 128
- MIC [5]: 1 µg/mL
- IC50 at 24 h [6]: 1020 µg/mL

Compound: C(=C\c1cc(OCCCNC2=NCCC2)cc(OCCCNC2=NCCC2)c1)/c1ccc(/C=C/c2cc(OCCCNC3=NCCC3)cc(OCCCNC3=NCCC3)c2)cc1.CC(=O)O.CC(=O)O.CC(=O)O.CC(=O)O
- MIC [1]: 16 µg/mL
- MIC [2]: 2 µg/mL
- MIC [3]: 16 µg/mL
- selectivity ratio [4]: 64
- MIC [5]: 1 µg/mL
- IC50 at 24 h [6]: 1020 µg/mL

Compound: CC(=O)O.CC(=O)O.CC(=O)O.CC(=O)O.CCC(=N)N(CCCOc1cc(/C=C/c2ccc(/C=C/c3cc(OCCCN(C(=N)CC)C4CC4)cc(OCCCN(C(=N)CC)C4CC4)c3)cc2)cc(OCCCN(C(=N)CC)C2CC2)c1)C1CC1
- MIC [1]: 8 µg/mL
- MIC [2]: 2 µg/mL
- MIC [3]: 16 µg/mL
- selectivity ratio [4]: 8
- MIC [5]: 1 µg/mL
- IC50 at 24 h [6]: 128 µg/mL

Compound: CC(=O)O.CC(=O)O.CC(=O)O.CC(=O)O.CCCN(CCCOc1cc(/C=C/c2ccc(/C=C/c3cc(OCCCN(CCC)C(=N)C4CC4)cc(OCCCN(CCC)C(=N)C4CC4)c3)cc2)cc(OCCCN(CCC)C(=N)C2CC2)c1)C(=N)C1CC1
- selectivity ratio [4]: 0.5
- MIC [5]: 1 µg/mL
- IC50 at 24 h [6]: 16 µg/mL

Compound: POLYMYXIN B
- inhibition [7]: inactive
- MIC [12]: 2 µg/mL
- Activity [31]: 100%
- MBIC50 [9]: 2 µg/mL
- MBIC90 [9]: 2 µg/mL

Compound: CC(=O)O.CC(=O)O.CC(=O)O.CC(=O)O.CCCN(CCCOc1cc(/C=C/c2ccc(/C=C/c3cc(OCCCN(CCC)C(=N)CC)cc(OCCCN(CCC)C(=N)CC)c3)cc2)cc(OCCCN(CCC)C(=N)CC)c1)C(=N)CC
- MIC [1]: 8 µg/mL
- MIC [2]: 2 µg/mL
- MIC [3]: 16 µg/mL
- selectivity ratio [4]: 2
- MIC [5]: 1 µg/mL
- IC50 at 24 h [6]: 32 µg/mL
